Among the data in US8481544B2, “Antibacterial compositions” (Biota Europe Limited, priority 2006, dated 2013) are MIC values, retold here.

Values after ≈ are worked out from the molar mass of the structure shown.

Assay type in all cases: cell-based
The test system of test [1] is Staphylococcus aureus ATCC 29213. The test can be described thus: MIC against Staphylococcus aureus ATCC 29213. Conditions: ATCC29213; Staphylococcus aureus ATCC 29213; read-out: MIC Activity.
Test [2] has as its system Enterococcus faecium (VRE) ATCC 700221. The test can be described thus: MIC against Enterococcus faecium (VRE) ATCC 700221. Conditions: Enterococcus faecium (VRE) ATCC 700221; read-out: MIC Activity.
For test [3], the system named is Staphylococcus epidermidis ATCC 12228. In words: MIC against Staphylococcus epidermidis ATCC 12228. Particulars: ATCC12228; Staphylococcus epidermidis ATCC 12228; read-out: MIC Activity.
In test [4] the test system is Moraxella catarrhalis ATCC 25240. The test can be described thus: MIC against Moraxella catarrhalis ATCC 25240. Particulars: ATCC25240; Moraxella catarrhalis ATCC 25240; read-out: MIC Activity.
For test [5], the system named is Enterococcus faecalis ATCC 29212. In words: MIC against Enterococcus faecalis ATCC 29212. Particulars: Enterococcus faecalis, ATCC29212; ATCC 29212; Table 5; read-out: MIC against Enterococcus faecalis (Activity). The method, boiled down: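 MIC measured by broth microdilution or agar dilution following CLSI guidelines (M7-A7 for aerobes, M11-A6 for anaerobes).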

Test [6] deals with Streptococcus pyogenes ATCC 51339. In words: MIC against Streptococcus pyogenes ATCC 51339. Particulars: ATCC51339; Streptococcus pyogenes ATCC 51339; read-out: MIC Activity.
In test [7] the test system is Streptococcus agalactiae ATCC 13813. The test can be described thus: MIC against Streptococcus agalactiae ATCC 13813. Particulars: ATCC13813.
Test [8] deals with Enterococcus faecalis (VRE) ATCC 51299. The test can be described thus: MIC against Enterococcus faecalis (VRE) ATCC 51299. Conditions: Enterococcus faecalis (VRE) ATCC 51299; read-out: MIC Activity.
The subject of test [9] is Staphylococcus haemolyticus ATCC 29970. In words: MIC against Staphylococcus haemolyticus ATCC 29970. Conditions: ATCC29970; Staphylococcus haemolyticus ATCC 29970; read-out: MIC Activity.
In test [10] the test system is Streptococcus pneumoniae ATCC 49619. The test can be described thus: MIC against Streptococcus pneumoniae ATCC 49619. Conditions: ATCC49619.
The subject of test [11] is Streptococcus mutans ATCC 35668. The test can be described thus: MIC against Streptococcus mutans ATCC 35668. Particulars: ATCC35668; Streptococcus mutans ATCC 35668; read-out: MIC Activity.
Test [12] relates to Enterococcus faecium (VSE) ATCC 19434. In words: MIC against Enterococcus faecium (VSE) ATCC 19434. Conditions: ATCC19434; Enterococcus faecium (VSE) ATCC 19434; read-out: MIC Activity.

For orientation: MIC means the least concentration at which growth counts as inhibited. For `CCNC(=O)Nc1nc2cc(-c3cccnc3)nc(-c3cccnc3)c2s1` [Example 180, 1-(4,6-Di-pyridin-3-yl-thiazolo[5,4-c]pyridin-2-yl)-3-ethyl-urea], the MIC in test [1] was 2 to 16 µg/mL (≈ 5.31 to 42.5 µM); in test [2], 2 to 16 µg/mL (≈ 5.31 to 42.5 µM); in test [3], 0.25 to 1 µg/mL (≈ 0.664 to 2.66 µM); in test [4], 0.25 to 1 µg/mL (≈ 0.664 to 2.66 µM); in test [5], 0.25 to 1 µg/mL (≈ 0.664 to 2.66 µM); in [6], 2 to 16 µg/mL (≈ 5.31 to 42.5 µM). Moreover, the MIC lay within 0.25 to 1 µg/mL (≈ 0.664 to 2.66 µM) in [7]; 0.25 to 1 µg/mL (≈ 0.664 to 2.66 µM) in test [8]; 0.25 to 1 µg/mL (≈ 0.664 to 2.66 µM) in test [9]; 0.25 to 1 µg/mL (≈ 0.664 to 2.66 µM) in test [10]; 0.25 to 1 µg/mL (≈ 0.664 to 2.66 µM) in [11]; 2 to 16 µg/mL (≈ 5.31 to 42.5 µM) in test [12].
